From PubChem BioAssay (NCI) come the findings set out here.

Test systems include MDA-MB-435; HCC-2998 colon; DU-145 prostate; COLO 205 colon; SK-MEL-28 melanoma; PC-3 prostate; NCI-H226 lung; RXF 393 renal; A549 NSCLC; UO-31 renal; SF-268 CNS; SW-620 colon; HOP-62 NSCLC; 786-0 renal.
Common to all, as to assay: DTP human tumour cell line panel, 48 h

Molecules are shown by their SMILES.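 Each compound was tested at five concentrations against cells in 96-well plates for 48 hours. The concentration for full growth arrest is given as TGI.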

For the molecule `CCN(CC)C(=S)SNc1ccc(S(N)(=O)=O)cc1`, the TGI in the experiment on MDA-MB-435, in the experiment with HCC-2998 colon, in the experiment on DU-145 prostate, with COLO 205 colon, with SK-MEL-28 melanoma and with PC-3 prostate was above 100 µM each time. Further, the concentration for total growth inhibition (TGI) in the experiment with NCI-H226 lung is above 100 µM; in the experiment with RXF 393 renal it was above 82.8 µM; in the experiment on A549 NSCLC it was above 100 µM; in the experiment with UO-31 renal it was above 100 µM; in the experiment with SF-268 CNS, above 100 µM; in the experiment on SW-620 colon it was 19.3 µM. The TGI in the experiment with HOP-62 NSCLC is above 100 µM; with 786-0 renal, above 71 µM.

As to `CC(=O)OCc1ccc2oc(=O)c(C(=O)Oc3cccc(Cl)c3)cc2c1`, the TGI is above 100 µM in the experiment with MDA-MB-435; 39.3 µM in the experiment on HCC-2998 colon; above 100 µM with DU-145 prostate; 94.4 µM in the experiment on COLO 205 colon; above 100 µM with SK-MEL-28 melanoma; 34.4 µM with PC-3 prostate. In addition, the total growth inhibition concentration (TGI) with NCI-H226 lung is above 100 µM; with RXF 393 renal, above 100 µM; in the experiment on A549 NSCLC, above 100 µM; with UO-31 renal it was 55.4 µM; with SF-268 CNS it was above 100 µM; in the experiment on SW-620 colon, above 100 µM. Moreover, the TGI with HOP-62 NSCLC and with 786-0 renal was above 100 µM each time.

With `CC1(C)C(C#N)=[N+]([O-])C(C)(C)N1O`, the TGI in the experiment on MDA-MB-435, with HCC-2998 colon, with DU-145 prostate, in the experiment on COLO 205 colon, in the experiment on SK-MEL-28 melanoma and in the experiment on PC-3 prostate was above 100 µM throughout. The TGI with NCI-H226 lung, in the experiment with RXF 393 renal, in the experiment on A549 NSCLC, in the experiment on UO-31 renal, in the experiment with SF-268 CNS and with SW-620 colon was above 100 µM in each case. The TGI in the experiment on HOP-62 NSCLC and in the experiment on 786-0 renal was above 100 µM in each case.

Take `Cc1nn2c(=O)c([N+](=O)[O-])c(/C=C/c3ccco3)nc2s1`: the concentration for total growth inhibition (TGI) in the experiment on MDA-MB-435 was 44.7 µM; with HCC-2998 colon, above 100 µM; with DU-145 prostate it was above 100 µM; in the experiment on COLO 205 colon, above 100 µM; in the experiment on SK-MEL-28 melanoma, above 100 µM; in the experiment with PC-3 prostate, above 100 µM. Further, the total growth inhibition concentration (TGI) in the experiment with NCI-H226 lung, in the experiment with RXF 393 renal, with A549 NSCLC, with UO-31 renal, in the experiment with SF-268 CNS and in the experiment with SW-620 colon was above 100 µM in each case. In addition, the TGI with HOP-62 NSCLC and in the experiment on 786-0 renal was above 100 µM throughout.

In the case of `O=C(/C=C/c1ccc(O)c(O)c1)OCc1ccccc1`, the TGI in the experiment on MDA-MB-435 was 97.3 µM; in the experiment with HCC-2998 colon, above 100 µM; in the experiment with DU-145 prostate it was 39.5 µM; in the experiment on COLO 205 colon, 70.9 µM; in the experiment on SK-MEL-28 melanoma, 61.3 µM; with PC-3 prostate it was 85.1 µM. The concentration for total growth inhibition (TGI) was above 100 µM in the experiment with NCI-H226 lung; 65.4 µM in the experiment on RXF 393 renal; 62.1 µM in the experiment on A549 NSCLC; 51.1 µM in the experiment with UO-31 renal; 45.8 µM with SF-268 CNS; above 100 µM in the experiment with SW-620 colon. The values for the TGI in the experiment with HOP-62 NSCLC and with 786-0 renal were 72.4 µM and 84.3 µM, respectively.

Consider `C1=Nc2ccc(cc2)N=Cc2ccccc2OCc2cccc(n2)COc2ccccc21`, for which the TGI in the experiment on MDA-MB-435, in the experiment with HCC-2998 colon, with DU-145 prostate, with COLO 205 colon, in the experiment with PC-3 prostate and in the experiment with NCI-H226 lung was above 100 µM throughout. In addition, the TGI in the experiment on RXF 393 renal was 36.2 µM; in the experiment on A549 NSCLC, above 100 µM; with UO-31 renal, above 100 µM; in the experiment with SW-620 colon it was above 100 µM; in the experiment on HOP-62 NSCLC it was above 100 µM; in the experiment with 786-0 renal, above 100 µM.

For the molecule `N=c1oc2c(Br)cc(Br)cc2cc1C(=O)Nc1ccccn1`, the TGI in the experiment on MDA-MB-435, with HCC-2998 colon, with DU-145 prostate, in the experiment with COLO 205 colon, with SK-MEL-28 melanoma and in the experiment with PC-3 prostate was above 100 µM throughout. The TGI with NCI-H226 lung, in the experiment on RXF 393 renal, in the experiment on A549 NSCLC, in the experiment with SF-268 CNS, in the experiment on SW-620 colon and in the experiment on HOP-62 NSCLC was above 100 µM throughout. In the experiment on 786-0 renal, this molecule had a TGI above 100 µM.

`CC1=[N+]([O-])C(C)(C)N(N=O)C1(C)C`: the TGI with MDA-MB-435, in the experiment on HCC-2998 colon, in the experiment with DU-145 prostate, in the experiment on COLO 205 colon, with PC-3 prostate and in the experiment on NCI-H226 lung was above 10 µM each time. For the same molecule, the TGI with RXF 393 renal, with A549 NSCLC, in the experiment with UO-31 renal, with SF-268 CNS, in the experiment on SW-620 colon and with HOP-62 NSCLC was above 10 µM throughout. This molecule registered a TGI with 786-0 renal above 10 µM.

As to `Cc1cccc(NC(=S)Nc2ccc([N+](=O)[O-])cc2)n1`, the total growth inhibition concentration (TGI) with MDA-MB-435, with HCC-2998 colon, in the experiment on DU-145 prostate, in the experiment with COLO 205 colon, with SK-MEL-28 melanoma and in the experiment on PC-3 prostate was above 100 µM throughout. Besides, the TGI in the experiment on NCI-H226 lung, with RXF 393 renal, with UO-31 renal, in the experiment with SF-268 CNS, with SW-620 colon and with HOP-62 NSCLC was above 100 µM in each case. Besides, in the experiment on 786-0 renal, the TGI is above 100 µM.

`N#CC1(C#N)NC(c2cccnc2)C(C#N)(C#N)NC1c1cccnc1` (configuration not stated): the TGI in the experiment on MDA-MB-435, with HCC-2998 colon, with DU-145 prostate, with COLO 205 colon, with SK-MEL-28 melanoma and in the experiment on PC-3 prostate was above 100 µM in each case. The TGI with NCI-H226 lung, with RXF 393 renal, in the experiment with A549 NSCLC, in the experiment with SF-268 CNS, in the experiment on SW-620 colon and in the experiment on HOP-62 NSCLC was above 100 µM in each case. In the experiment on 786-0 renal, this molecule showed a TGI above 100 µM.

With `Cc1ccc2nc(N/N=C/c3ccc(C)s3)cc(C)c2c1`, the TGI was 23.1 µM with MDA-MB-435; 17.3 µM with HCC-2998 colon; 23 µM in the experiment on DU-145 prostate; 12.2 µM with COLO 205 colon; 28.9 µM in the experiment with SK-MEL-28 melanoma; 24.1 µM in the experiment with PC-3 prostate. The TGI in the experiment with NCI-H226 lung was 31.7 µM; in the experiment on RXF 393 renal, 28.3 µM; in the experiment on A549 NSCLC it was 21.1 µM; with SF-268 CNS, 35.4 µM; in the experiment on SW-620 colon, 29.4 µM; in the experiment with HOP-62 NSCLC it was 31.3 µM. Also, in the experiment with 786-0 renal, the TGI is 11.3 µM.

Broadly, the TGI is the concentration giving total growth inhibition. A high value points to less potent growth arrest.
